Assay results reported in patent US20070093520A1, “Method of treatment of diarrhea-predominant irritable bowel syndrome in a subject” (priority 2005, published 2007).

Test system: diarrhea-predominant IBS subjects
Assay: 3007 Study: open-label 52-week safety study, adverse events and withdrawals
Conditions: Overall

Cc1nccn1C[C@H]1CCc2c(c3cccc4c3n2CCC4)C1=O [cilansetron, (R)-(−)-4,5,6,8,9,10-hexahydro-10-[(2-methyl-1H-imidazol-1-yl)methyl]-11H-pyrido-[3,2,1-jk]-carbazol-11-one]
TEAE: Memory Loss (Excl Dementia): 1 (<1%) n (%) | TEAE: Meniere's Disease: 1 (<1%) n (%) | TEAE: Menorrhagia*: 2 (<1%) n (%) | TEAE: Menstruation Irregular*: 1 (<1%) n (%) | TEAE: Menstruation and Uterine Bleeding NEC*: 2 (<1%) n (%) | TEAE: Menstruation with Decreased Bleeding*: 1 (<1%) n (%) | TEAE: Menstruation with Increased Bleeding*: 3 (<1%) n (%) | TEAE: Mental Disorders NEC: 1 (<1%) n (%) | TEAE: Mental Status Changes: 1 (<1%) n (%) | TEAE: Metabolic Bone Disorders: 3 (<1%) n (%) | TEAE: Metabolism Tests NEC: 6 (1%) n (%) | TEAE: Metabolism and Nutrition Disorders: 21 (4%) n (%) | TEAE: Middle Ear Disorders NEC: 1 (<1%) n (%) | TEAE: Migraine Headaches: 5 (<1%) n (%) | TEAE: Migraine NOS: 5 (<1%) n (%) | TEAE: Mineral and Electrolyte Analyses: 2 (<1%) n (%) | TEAE: Monoarthritis: 2 (<1%) n (%) | TEAE: Monocyte Count Decreased: 2 (<1%) n (%) | TEAE: Monocyte Count Increased: 2 (<1%) n (%) | TEAE: Mononeuropathies: 3 (<1%) n (%) | TEAE: Motion Sickness: 1 (<1%) n (%) | TEAE: Movement Disorder NOS: 1 (<1%) n (%) | TEAE: Muscle Cramps: 10 (2%) n (%) | TEAE: Muscle Infections and Inflammations: 1 (<1%) n (%) | TEAE: Muscle Pains: 3 (<1%) n (%) | TEAE: Muscle Related Signs and Symptoms NEC: 11 (2%) n (%) | TEAE: Muscle Spasms: 1 (<1%) n (%) | TEAE: Muscle Strain: 8 (1%) n (%) | TEAE: Muscle Tone Abnormalities: 1 (<1%) n (%) | TEAE: Muscle, Tendon and Ligament Injuries: 10 (2%) n (%) | TEAE: Musculoskeletal Chest Pain: 1 (<1%) n (%) | TEAE: Musculoskeletal and Connective Tissue Disorders: 87 (16%) n (%) | TEAE: Musculoskeletal and Connective Tissue Signs and Symptoms NEC: 33 (6%) n (%) | TEAE: Musculoskeletal and Soft Tissue Imaging Procedures: 1 (<1%) n (%) | TEAE: Myalgia: 2 (<1%) n (%) | TEAE: Myasthenia Gravis: 1 (<1%) n (%) | TEAE: Mycoplasma Infections: 1 (<1%) n (%) | TEAE: Myeloradiculopathy: 1 (<1%) n (%) | TEAE: Myocardial Infarction: 1 (<1%) n (%) | TEAE: Myositis: 1 (<1%) n (%) | TEAE: Nail Fungal Infection NOS: 2 (<1%) n (%) | TEAE: Nail Infection NOS: 1 (<1%) n (%) | TEAE: Nail and Nail Bed Conditions (Excl Infections and Infestations): 1 (<1%) n (%) | TEAE: Nasal Congestion and Inflammations: 8 (1%) n (%) | TEAE: Nasopharyngitis: 28 (5%) n (%) | TEAE: Nausea: 25 (5%) n (%) | TEAE: Nausea and Vomiting Symptoms: 33 (6%) n (%) | TEAE: Neck Pain: 1 (<1%) n (%) | TEAE: Neoplasms Benign Site Unspecified NEC: 2 (<1%) n (%) | TEAE: Neoplasms Benign, Malignant and Unspecified (Incl Cysts and Polyps): 15 (3%) n (%) | TEAE: Nervous System Disorders: 64 (12%) n (%) | TEAE: Neurological Signs and Symptoms NEC: 6 (1%) n (%) | TEAE: Neuromuscular Junction Dysfunction: 1 (<1%) n (%) | TEAE: Neutrophil Count Decreased: 3 (<1%) n (%) | TEAE: Night Cramps: 1 (<1%) n (%) | TEAE: Nitrite Urine Present: 2 (<1%) n (%) | TEAE: Non-Accidental Overdose: 1 (<1%) n (%) | TEAE: Non-Site Specific Injuries NEC: 11 (2%) n (%) | TEAE: Non-Site Specific Procedural Complications: 8 (1%) n (%) | TEAE: Normal Pregnancy, Labour and Delivery*: 1 (<1%) n (%) | TEAE: Ocular Disorders NEC: 1 (<1%) n (%) | TEAE: Ocular Nerve and Muscle Disorders: 2 (<1%) n (%) | TEAE: Oedema NEC: 7 (1%) n (%) | TEAE: Oedema NOS: 1 (<1%) n (%) | TEAE: Oedema Peripheral: 6 (1%) n (%) | TEAE: Ophthalmic Function Diagnostic Procedures: 2 (<1%) n (%) | TEAE: Oral Dryness and Saliva Altered: 2 (<1%) n (%) | TEAE: Osteoarthritis Aggravated: 3 (<1%) n (%) | TEAE: Osteoarthropathies: 4 (<1%) n (%) | TEAE: Osteopenia: 1 (<1%) n (%) | TEAE: Osteoporosis NOS: 3 (<1%) n (%) | TEAE: Otitis Media NOS: 1 (<1%) n (%) | TEAE: Ovarian Cancer NOS*: 1 (<1%) n (%) | TEAE: Ovarian Cystadenofibroma*: 1 (<1%) n (%) | TEAE: Ovarian Neoplasms Benign*: 1 (<1%) n (%) | TEAE: Ovarian Neoplasms Malignant (Excl Germ Cell)*: 1 (<1%) n (%) | TEAE: Overdoses: 1 (<1%) n (%) | TEAE: Pain NOS: 3 (<1%) n (%) | TEAE: Pain and Discomfort NEC: 12 (2%) n (%) | TEAE: Pain in Limb: 6 (1%) n (%) | TEAE: Palpitations: 4 (<1%) n (%) | TEAE: Panic Attack: 1 (<1%) n (%) | TEAE: Panic Symptoms: 1 (<1%) n (%) | TEAE: Papulosquamous Conditions: 1 (<1%) n (%) | TEAE: Paraesthesias and Dysaesthesias: 2 (<1%) n (%) | TEAE: Paranasal Sinus Disorders (Excl Infections and Neoplasms): 9 (2%) n (%) | TEAE: Paranasal Sinus Hypersecretion: 1 (<1%) n (%) | TEAE: Parkinson's Disease NOS: 1 (<1%) n (%) | TEAE: Parkinson's Disease and Parkinsonism: 1 (<1%) n (%) | TEAE: Partial Vision Loss: 1 (<1%) n (%) | TEAE: Pelvic Pain NOS: 2 (<1%) n (%) | TEAE: Penile Disorders NEC (Excl Erection and Ejaculation)*: 1 (<1%) n (%) | TEAE: Penile Haemorrhage*: 1 (<1%) n (%) | TEAE: Perception Disturbances: 1 (<1%) n (%) | TEAE: Periorbital Haematoma: 1 (<1%) n (%) | TEAE: Peripheral Embolism NOS: 1 (<1%) n (%) | TEAE: Peripheral Embolism and Thrombosis: 1 (<1%) n (%) | TEAE: Peripheral Swelling: 1 (<1%) n (%) | TEAE: Peripheral Vascular Disorders NEC: 2 (<1%) n (%) | TEAE: Pharyngitis: 6 (1%) n (%) | TEAE: Pharyngitis Streptococcal: 7 (1%) n (%) | TEAE: Physical Examination Procedures: 9 (2%) n (%) | TEAE: Plantar Fasciitis: 4 (<1%) n (%) | TEAE: Pneumonia Mycoplasmal: 1 (<1%) n (%) | TEAE: Pneumonia NOS: 2 (<1%) n (%) | TEAE: Polydipsia: 1 (<1%) n (%) | TEAE: Polyuria: 1 (<1%) n (%) | TEAE: Popliteal Bursitis: 1 (<1%) n (%) | TEAE: Post Procedural Discomfort: 2 (<1%) n (%) | TEAE: Post Procedural Pain: 6 (1%) n (%) | TEAE: Posterior Capsule Opacification: 1 (<1%) n (%) | TEAE: Postnasal Drip: 1 (<1%) n (%) | TEAE: Pregnancy NOS*: 1 (<1%) n (%) | TEAE: Pregnancy, Puerperium and Perinatal Conditions: 1 (<1%) n (%) | TEAE: Premenopause*: 1 (<1%) n (%) | TEAE: Premenstrual Syndrome*: 1 (<1%) n (%) | TEAE: Proctalgia: 4 (<1%) n (%) | TEAE: Productive Cough: 1 (<1%) n (%) | TEAE: Prostate and Seminal Vesicles Infections and Inflammations*: 3 (2%) n (%) | TEAE: Prostatitis*: 3 (2%) n (%) | TEAE: Protein Urine Present: 3 (<1%) n (%) | TEAE: Proteinuria: 1 (<1%) n (%) | TEAE: Pruritus Ani: 1 (<1%) n (%) | TEAE: Pruritus NEC: 4 (<1%) n (%) | TEAE: Pruritus NOS: 4 (<1%) n (%) | TEAE: Psoriasis: 1 (<1%) n (%) | TEAE: Psychiatric Disorders: 32 (6%) n (%) | TEAE: Psychotic Disorder NEC: 1 (<1%) n (%) | TEAE: Psychotic Disorder NOS: 1 (<1%) n (%) | TEAE: Purine Metabolism Disorders NEC: 2 (<1%) n (%) | TEAE: Pyrexia: 3 (<1%) n (%) | TEAE: Rash Macular: 2 (<1%) n (%) | TEAE: Rash NOS: 6 (1%) n (%) | TEAE: Rashes, Eruptions and Exanthems NEC: 8 (1%) n (%) | TEAE: Rate and Rhythm Disorders NEC: 4 (<1%) n (%) | TEAE: Rectal Cramps: 1 (<1%) n (%) | TEAE: Rectal Disorder NOS: 1 (<1%) n (%) | TEAE: Rectal Haemorrhage: 8 (1%) n (%) | TEAE: Rectal Tenesmus: 2 (<1%) n (%) | TEAE: Red Blood Cell Analyses: 1 (<1%) n (%) | TEAE: Red Blood Cells Urine: 1 (<1%) n (%) | TEAE: Refractive Errors NOS: 1 (<1%) n (%) | TEAE: Refractive and Accommodative Disorders: 1 (<1%) n (%) | TEAE: Renal Bruit: 1 (<1%) n (%) | TEAE: Renal Function Analyses: 4 (<1%) n (%) | TEAE: Renal Lithiasis: 3 (<1%) n (%) | TEAE: Renal and Urinary Disorders: 17 (3%) n (%) | TEAE: Reproductive Organ and Breast Histopathology Procedures: 1 (<1%) n (%) | TEAE: Reproductive System and Breast Disorders: 24 (4%) n (%) | TEAE: Reproductive Tract Signs and Symptoms NEC: 3 (<1%) n (%) | TEAE: Respiratory Tract Congestion: 2 (<1%) n (%) | TEAE: Respiratory Tract Disorders NEC: 2 (<1%) n (%) | TEAE: Respiratory Tract Infection NOS: 1 (<1%) n (%) | TEAE: Respiratory, Thoracic and Mediastinal Disorders: 46 (9%) n (%) | TEAE: Retinal Detachment: 1 (<1%) n (%) | TEAE: Retinal Structural Change, Deposit and Degeneration: 1 (<1%) n (%) | TEAE: Rheumatoid Arthritis: 1 (<1%) n (%) | TEAE: Rheumatoid Arthritis Aggravated: 1 (<1%) n (%) | TEAE: Rheumatoid Arthropathies: 2 (<1%) n (%) | TEAE: Rhinitis Allergic NOS: 4 (<1%) n (%) | TEAE: Rhinitis NOS: 3 (<1%) n (%) | TEAE: Rhinitis Seasonal: 1 (<1%) n (%) | TEAE: Rhinoviral Infections: 28 (5%) n (%) | TEAE: Rib Fracture: 1 (<1%) n (%) | TEAE: Road Traffic Accident: 1 (<1%) n (%) | TEAE: Rosacea: 1 (<1%) n (%) | TEAE: Rosaceas: 1 (<1%) n (%) | TEAE: Rotator Cuff Syndrome: 1 (<1%) n (%) | TEAE: Seasonal Allergy: 5 (<1%) n (%) | TEAE: Seizures and Seizure Disorders NEC: 1 (<1%) n (%)
